Results reported in EP2563337B1, “CARRIER AND TARGETING SYSTEM COMPRISING A SIOSOMAL COMPOSITION FOR INTRACELLULAR DELIVERY AND TARGETING OF ACTIVE SUBSTANCE” (Salama, Zoser B., priority 2010, dated 2011).
Where “and” joins values, the source holds several entries; their conditions need not be identical. Identical values can stand only once.

Legend:
[1] = Encapsulation efficiency of doxorubicin hydrochloride in siosomes (absorbance at 480 nm after gel filtration); format: physicochemical
Description: A doxorubicin hydrochloride solution at 10 mg/ml was prepared using physiological saline. The predetermined amount of the doxorubicin hydrochloride solution was added to the sugar siosome dispersion using the cationic organosilicon compounds such as 1.2-(Dimethyldecylsilyl)ethyl-beta-D-glucosamin, 2.2-(Dimethyloctylsilylcholin)ethyl-beta-D-glucopyranosid and/or 1.2-(DiN,N,N,trimethylammoniadecylsilyl)ethyl-beta-D-glucopyranosid and the mixture was adjusted to pH 7.4, using 1 N NaOH or saturated sodium hydrogencarbonate and the mixture was stirred at 65°C for 30 minutes the thereby introduce the doxorubicin hydrochloride in the siosomes.
After doxorubicin hydrochloride introduction, the sample was cooled in an ice bath. Gel filtration was conducted using a column (Sepharose 4, fast flow, having a diameter of 2.8 cm and a length of 20 cm, fully substituted with 10% sucrose (pH 6.5)) to remove the doxorubicin hydrochloride that had not been introduced in the siosomes.
The amount of the sugar silanes in the siosomes, the amounts of the doxorubicin hydrochloride encapsulated in the siosomes and the siosomes themselves were measured by the same methods as in the above examples.
Concentration of the doxorubicin hydrochloride encapsulated in the siosomes was determined by measuring absorbance at 480 nm, using a spectrophotometer for the solution prepared by adding 2 ml of methanol to 40 µl of the doxorubicin siosomes. An alternative HPLC-based assay has also been used for the quantification of the doxorubicin in the formulations.
The above procedures described in example 16 were employed to prepare the carrier siosomes systems in this example. According to these methods of preparation, a dispersion of each of the following organo-silicon compounds were prepared, using doxorubicin hydrochloride solutions at […]. • Sil 8.1: Decyldimethylsilyl-α-D-galactopyranosid • Sil 9.1: Dodecyldimethylsilyl-α-D-glucopyranosid • SIL 15: 1-O-Dioctadecylsilyl-di(2,3,4,6-O-tetracetyl-β-D-galactopyranosid) • SIL 14: 1-o-Dioctadecylsilyl-di(2,3,4,6-O-tetracetyl-β-D-glucopyranosid)1-o- • SIL17: Didodecylsilyl-di(2,3,4,6-O-tetracetyl-β-D-glucopyranosid) • SIL18: Tridodecylsilyl-(2,3,4,6-O-tetracetyl-β-D-glucopyranosid) • Sil22.1 Di(octadecanoyloxy)dimethylsilan
The following parameters have been determined: 1 Physico chemical properties 2 Encapsulated efficiency of doxorubicin 3 Stability 4 Particle size distribution prior to lyophilisation and after dehydration using sterile water for injection 5 Release profile

[2] = for Particle size range of the Doxorubicin-siosomes (nm): Example 18: doxorubicin-siosomes prepared from the single organosilicon compound; for Particle size (nm): Example 19: doxorubicin-siosomes from organosilicon compounds and combinations
Description: The siosome size was measured using Zetasizer (Malvern Instruments).
The obtained test samples were analyzed using a Zetasizer from Malvern to measure the particle size of the Siosomes® and its concentration (via determination of the count rate which related to the sample quality and concentration).
The Zetasizer from Malvern performs particle size measurements using a process called Dynamic Light Scattering (DLS). Dynamic Light Scattering (also known as PCS - Photon Correlation Spectroscopy) measures Brownian motion and relates this to the size of the particles. It does this by illuminating the particles with a laser and analyzing the intensity fluctuations in the scattered light. If the particles or molecules are illuminated with a laser, the intensity of the scattered light fluctuates at a rate that is dependent upon the size of the particles as smaller particles are "kicked" further by the solvent molecules and move more rapidly.

[3] = Intracellular distribution of Cis-Oxoplatin within the rat liver, total platinum in liver homogenate and fractions; format: in vivo; details: rats, 1.5 mg Cis-Oxoplatin encapsulated in Siosomes of the compound, intravenous, 3 hours after administration
Text: • 1. The objective of the study to assess the intracellular distribution of Cis-Oxoplatin (as model drug molecule) in rat liver using Cis-Oxoplatin encapsulated in Siosomes®, using the following organosilicon compounds: • a. Sugar Organosilicon Compound: Didodecylsilyi-di(2,3,4,6-O-tetraacetyl-β-D-glucopyranosid (SIL 17) • b. Cationic Sugar Organosilicon Compound: 2.2-(Dimethyloctylsilylcholin)ethyl- β-D-glucopyranosid (SIL62) • c. Anionic Sugar Organosilicon Compound: 2-(Dimethyidecylsilyl)ethyl-β-D-glucopyranosidsulfate (SIL56) • d. Zwitterionic Sugar Organosilicon Compound: 2-(N,N,N, trimethylammonianonaylsilyl)ethyl- P-D-glucopyranosidsulfate (SIL66) • e. PEGylated Organosilicon Compound: 2-(Dimethyloctylsilylcholin)ethyl-β-D-PEG-acetylglucosaminether (SIL54) • 2. The different Siosomes® using each of the above mentioned organosilicon compounds have been prepared according to the procedures of this invention. The particle size range of the Siosomes® was 120-300 nm.
The Platinum-Siosomes®-Complex formulations were supplied in vials containing 10 mg each. Before administration, the contents of each vial was dissolved using 2 ml of sterile distilled water.
Each rat was administered with 1.5 mg investigative formulation, therefore each rat was administered 300 µl.
At the start of the study, all animals in all treatment groups received 1.5 mg of investigative drug. All drugs given via intravenous route were treated in an ultrasonic bath for five minutes at room temperature.
Tissue fractionation was performed by differential centrifugation yielding 5 fractions: • a. Mitochondrial fraction • b. Cytosol • c. Lysosomes • d. Microsomal fraction • e. Membrane fraction
Animals have been sacrificed 3 hours after the administration of the Siosomes® formulations. The livers have been removed from all animals. The liver homogenate has been prepared from the liver of each treatment group and used for the fractionation of the liver cells.
Each of the animals in the treatment control group for the determination of total platinum in the liver homogenate have been administered the Drug-Siosomes® formulations in the same way/procedures as the treatment groups.
Total platinum concentrations have been determined in each fraction for the treated and untreated animal groups. • Average animal weight = 211.64 ± 21.23 g • Average liver weight = 10.40 ± 1.27 g • Average concentration of total platinum in the liver homogenate of the treatment groups (control) • Group 1: Sugar Organosilicon Compound = 2.34 ± 0.82 µg/g • Group 2: Cationic Sugar Organosilicon Compound = 4.40 ± 1.30 µg/g • Group 3: Anionic Sugar Organosilicon Compound = 2.20 ± 0.90 µg/g • Group 4: Zwitterionic Sugar Organosilicon Compound = 3.10 ± 0.70 µg/g • Group 5: PEGylated Organosilicon Compound = 2.90 ± 1.20 µg/g

[4] = IPSS E011: pharmacokinetics and bioaccumulation of platinum complexes, total platinum in blood and organs by AAS; format: in vivo; details: rats, 1.0 mg intravenous, repeated dose over 7 consecutive days
Text: IPSS E011: A Clinical Study in Rats on the Pharmacokinetics and Bioaccumulation of Platinum Complexes following the Repeated Dose over 7 Consecutive Days of Formulations (PT-11, PT-12 and PT-13), with 7 Days Non-Treatment Period
The following tables and figure 12 illustrate a summary of the generated results.

[5] = Example 18: doxorubicin-siosomes prepared from the single organosilicon compound
[6] = Example 19: doxorubicin-siosomes from organosilicon compounds and combinations

Compound | Encapsulation efficiency (%) [1, 5] | Particle size range of the Doxorubicin-siosomes (nm) [2] | also measured
2-(N,N,N,trimethylammonia nonyllsilyl)ethyl-beta-D-glucopyranosid [SIL 67] | 60-70% | 200-280 nm | –
2-(N,N,N,trimethylammonia nonanyllsilyl)ethyl-beta-D-glucopyranosid sulfate [SIL 66] | 55-70% | 150-220 nm | Average concentration of total platinum in the liver homogenate [3]: 3.10 ± 0.70 µg/g
2-(Dimethyl nonaoic acid silyl)ethyl-beta-D-PEG-acetylglucosaminether [SIL 53] | 80-85% | 180-250 nm | –
CCCCCCCCCC[Si](C)(C)CCO[C@@H]1O[C@H](C(=O)O)[C@@H](O)[C@H](O)[C@H]1O [SIL 57, 2-(Dimethyldecylsilyl)ethyl-beta-D-glucopyranosidcarboxylate] | 75-80% | 180-270 nm | –
2-(Dimethyloctylsilylcholin)ethyl-beta-D-PEG-acetylglucosaminether [SIL 54] | 80-85% | 200-250 nm | –
CCCCCCCCCC[Si](C)(C)CCO[C@@H]1O[C@H](COS(=O)(=O)O)[C@@H](O)[C@H](O)[C@H]1O [SIL 56, 2-(Dimethyldecylsilyl)ethyl-beta-D-glucopyranosidsulfate] | 60-70% | 200-220 nm | Average concentration of total platinum in the liver homogenate [3]: 2.20 ± 0.90 µg/g
CCCCCCCC[Si](C)(C)CCO[C@@H]1O[C@H](CO)[C@H](O)[C@H](O)[C@H]1O [SIL 22, 2-(Dimethyloctylsilyl)ethyl-β-D-galactopyranosid] | – | – | Encapsulation efficiency (%) [1, 6]: 55-70%; Particle size (nm) [2]: 250-300 nm
CCCCCCCCCCCCCCCCCC[Si](CCCCCCCCCCCCCCCCCC)(O[C@@H]1O[C@H](COC(C)=O)[C@@H](OC(C)=O)[C@H](OC(C)=O)[C@H]1OC(C)=O)O[C@@H]1O[C@H](COC(C)=O)[C@@H](OC(C)=O)[C@H](OC(C)=O)[C@H]1OC(C)=O [SIL 14, 1-O-Dioctadecylsilyl-di(2,3,4,6-O-tetraacetyl-β-D-glucopyranosid)] | 75-80% | 210-260 nm | –
CCCCCCCCCC[Si](C)(C)O[C@H]1O[C@H](CO)[C@H](O)[C@H](O)[C@H]1O [Sil 8.1, Decyldimethylsilyl-α-D-galactopyranosid] | 65-70% | 100-220 nm | –
2-(Dimethyloctadecylsilyl)ethyl-beta-N-acetylmuramic acid [SIL 60] | 60-70% | 200-250 nm | –
C[Si](C)(CCCCCCCCC(=O)O)CCO[C@@H]1O[C@H](CO)[C@@H](O)[C@H](O)[C@H]1O [SIL 58, 2-(Dimethylnonanoic acid silyl)ethyl-beta-D-glucopyranosid] | 70-80% | 150-270 nm | –
CCCCCCCCCCCC[Si](CCCCCCCCCCCC)(CCCCCCCCCCCC)O[C@@H]1O[C@H](COC(C)=O)[C@@H](OC(C)=O)[C@H](OC(C)=O)[C@H]1OC(C)=O [SIL 18, Tridodecylsilyl-(2,3,4,6-O-tetraacetyl-β-D-glucopyranosid)] | 55-60% | 160-250 nm | Encapsulation efficiency (%) [1, 6]: 60-80%; Particle size (nm) [2]: 220-350 nm
CCCCCCCCCCCCCCCCCC[Si](CCCCCCCCCCCCCCCCCC)(O[C@@H]1O[C@H](COC(C)=O)[C@H](OC(C)=O)[C@H](OC(C)=O)[C@H]1OC(C)=O)O[C@@H]1O[C@H](COC(C)=O)[C@H](OC(C)=O)[C@H](OC(C)=O)[C@H]1OC(C)=O [SIL 15, 1-O-Dioctadecylsilyl-di(2,3,4,6-O-tetraacetyl-β-D-galactopyranosid)] | 70-78% | 180-250 nm | –
2-(Dimethylcholesterylhemisuccinatesilyl)ethyl-beta-D-glucopyranosid sulfate [SIL 59] | 60-70% | 180-220 nm | –
CCCCCCCCCCCC[Si](C)(C)O[C@H]1O[C@H](CO)[C@@H](O)[C@H](O)[C@H]1O [Sil 9.1, Dodecyldimethylsilyl-α-D-glucopyranosid] | 60-65% | 150-200 nm | –
N.N.[Cl-].[Cl-].[OH-].[OH-].[Pt+4] [Standard Cis-Oxoplatin, Cis-oxoplatin] | – | – | Concentration of Total Platinum in Blood (ng/ml), Average ([4]; 7 days non-treatment period, average of 6 rats): 1521,92 ng/ml; Concentration of Total Platinum in Blood (ng/ml) ([4]; 7 days non-treatment period, individual rats): 1814,30 ng/ml and 1131,40 ng/ml and 1522,90 ng/ml and 1244,30 ng/ml and 1864,30 ng/ml and 1554,30 ng/ml; Concentration of Total Platinum in Kidney (µg/g), Average ([4]; average of 6 rats): 14,92 µg/g; Concentration of Total Platinum in Lung (µg/g), Average ([4]; average of 6 rats): 0,77 µg/g; Concentration of Total Platinum in Spleen (µg/g), Average ([4]; average of 6 rats): 2,39 µg/g; Concentration of Total Platinum in Stomach (µg/g), Average ([4]; average of 6 rats): 0,41 µg/g; Concentration of Total Platinum in Kidney (µg/g) ([4]; individual rats): 21,22 µg/g and 13,92 µg/g and 15,88 µg/g and 11,62 µg/g and 11,76 µg/g and 15,12 µg/g; Concentration of Total Platinum in Lung (µg/g) ([4]; individual rats): 0,80 µg/g and 0,62 µg/g and 1,09 µg/g and 0,52 µg/g and 0,71 µg/g and 0,86 µg/g; Concentration of Total Platinum in Stomach (µg/g) ([4]; individual rats): 0,51 µg/g and 0,47 µg/g and 0,38 µg/g and 0,35 µg/g (2×) and 0,37 µg/g; Concentration of Total Platinum in Spleen (µg/g) ([4]; individual rats, listed as Standard Cis-Oxoplatinum): 1,99 µg/g and 2,28 µg/g and 2,35 µg/g and 2,10 µg/g and 3,81 µg/g and 1,80 µg/g
CCCCCCCCCC(=O)O[Si](C)(C)OC(=O)CCCCCCCCC [SIL 21.1, Di(decanoyloxy)dimethylsilan] | 60-75% | 210-240 nm | –
C[Si](C)(CCCCCCCCCC(=O)O)CCOC1O[C@H](CO)[C@H](O)[C@H](O)[C@H]1N (stereo partly drawn) [SIL 68] | 70-80% | 180-220 nm | –
